Like-named read-outs stand apart in the source and are kept apart here.
Test system: SK-MEL-2 cells
Assay: MTT proliferation inhibition, NRAS mutant melanoma cell line
Settings: Homo sapiens, SK-MEL-2, 72 h
Experimental: All cells were provided by Beijing Cancer Hospital. Human melanoma cell line SK-MEL-2 (NRAS Q61R) was cultured with MEM supplemented with 10%FBS and penicillin streptomycin in an incubator at 37 °C and 5% carbon dioxide.
When the confluence of the cultured cells reached more than 80%, the adherent cells were digested with trypsin and the cell precipitate was collected by centrifugation, counted, and 90 µL of the cell suspension was seeded in a 96-well plate at the appropriate density. […] Each concentration was set up three multiple Wells, a total of 9 concentration points. The Wells added with the same volume of 5% DMSO were used as control, and the final concentration of DMSO was 0.5%. After 3 days of drug treatment, the cell viability was detected by MTT, and 10 µL MTT was added to each well and incubated in the incubator for another 4 hours. After the supernatant was discarded and 150 µL DMSO was added to dissolve the crystal, and the absorbance at 490 nm was detected by microplate reader. The above experiments were repeated three times. The dose-effect curve was made and IC50 was calculated by GraphPad Prism 8 software.

IC50 (read-out: IC5o(nM) 1st): 74.8 nM
IC50 (read-out: IC5o(nM) 2nd): 68.3 nM
IC50 (read-out: IC5o(nM) 3rd): 222 nM
IC50 (read-out: Mean value (nM)): 122 nM
SMILES: Cn1cnc2c(F)c(Nc3ccc(Br)cc3F)c(C(=O)NOCCO)cc21 [MEK162]
